Measured values from PMC8247773, “Benzohydrazide and Phenylacetamide Scaffolds: New Putative ParE Inhibitors” (Frontiers in Bioengineering and Biotechnology, 2021).
In brackets after ≈: the same amount, converted by molar mass. Several values for one entry are separate records, joined by “and”; a condition that tells them apart may be missing. Identical values can stand only once.

What was measured:
[1] = test system: Bacillus subtilis (NCIM 2545); set-up: method as in Yele et al., 2020, 2021; conditions: ref Yele et al., 2020, 2021; cited from earlier work
[2] = test system: Escherichia coli (NCIM 2065); experiment: Minimum bactericidal concentration (MBC); assay type: cell-based; conditions: E. Coli (NCIM 2065); for MBC/MIC: ratio ≤2 bactericidal, ≥4 tolerance
Method: (§1) MBC can be defined as the minimum concentration of a compound required to kill the bacteria over a fixed period under precise conditions. […] Colonies were counted, and colony forming unit (CFU) per milliliter was calculated.

MRSA (ATCC43300) [3] = experiment: Antibacterial susceptibility test, microbroth dilution MIC; assay type: cell-based, methicillin-resistant Staphylococcus aureus; conditions: mean ± SD
[4] = test system: Pseudomonas aeruginosa (NCIM 2036); set-up: method as in Yele et al., 2020, 2021; conditions: ref Yele et al., 2020, 2021; cited from earlier work
[5] = test system: Escherichia coli (NCIM 2567); set-up: method as in Yele et al., 2020, 2021; conditions: ref Yele et al., 2020, 2021; cited from earlier work
[6] = test system: Escherichia coli (NCIM 2065); experiment: Antibacterial susceptibility test, microbroth dilution MIC; assay type: cell-based; conditions: E. Coli (NCIM 2065); mean ± SD
[7] = test system: Staphylococcus epidermis (NCIM 2493); set-up: method as in Yele et al., 2020, 2021; conditions: ref Yele et al., 2020, 2021; cited from earlier work
MRSA (ATCC43300) [8] = experiment: Minimum bactericidal concentration (MBC); assay type: cell-based, methicillin-resistant Staphylococcus aureus
Method: as §1

MRSA (NCIM 5021) [9] = experiment: Minimum bactericidal concentration (MBC); assay type: cell-based, methicillin-resistant Staphylococcus aureus
Method: as §1

MRSA (NCIM 5021) [10] = experiment: Antibacterial susceptibility test, microbroth dilution MIC; assay type: cell-based, methicillin-resistant Staphylococcus aureus; conditions: mean ± SD
[11] = test system: Klebsiella pneumonia (NCIM 2706); set-up: method as in Yele et al., 2020, 2021; conditions: ref Yele et al., 2020, 2021; cited from earlier work
E. coli ParE enzyme = biological target: T1, E. coli ParE enzyme (Escherichia coli, UniProt P20083); experiment: E. coli ParE ATPase enzyme inhibition assay (ProFoldin kit, malachite green); assay type: biochemical; conditions: ATPase activity, mean ± SD (n = 3)
T1 construct: purchased ProFoldin, Hudson, United States
Method: The assay was performed as per the standard protocol provided by the ProFoldin. […] ParE hydrolyzes ATP as the source of molecular energy to perform decatenation reactions. Fluoroquinolones and aminocoumarins usually block ATPase activity to hinder the biological activities of topoisomerase II. Thus, the topoisomerase ATPase assay can be used for high-throughput screening of topoisomerase inhibitors. The ATPase activity of the E. coli ParE enzyme was based on the detection of inorganic phosphate produced by the hydrolysis of ATP in the presence of DNA. The phosphate is detected using a microplate reader at an absorbance wavelength of 650 nm. The selected compounds were tested for the inhibition of ATPase activity of ParE enzyme. […] The reaction mixture was incubated for 1 h at 37°C and then quenched with 45 μL of Dye. Incubate for 5 min, and the absorbance was measured at 650 nm. The IC50 values were determined from the absorbance readings using no enzyme and no compound controls. They were calculated using the non-linear regression curve fit method.

Vero cells [12] = experiment: In vitro cytotoxicity MTT assay; conditions: CC50 Vero cells / IC50
[13] = test system: Staphylococcus aureus (NCIM 5022); set-up: method as in Yele et al., 2020, 2021; conditions: ref Yele et al., 2020, 2021; cited from earlier work
Vero cells [14] = test system: Vero cells
[15] = test system: Mycobacterium tuberculosis (NCIM 2984); set-up: method as in Yele et al., 2020, 2021; conditions: ref Yele et al., 2020, 2021; cited from earlier work
E. coli [16] = experiment: Checkerboard synergy with FDA approved drugs; assay type: cell-based, Escherichia coli
E. coli [17] = experiment: Post antibiotic effect (PAE); assay type: cell-based, Escherichia coli; conditions: for Time for 1 log10: untreated control 2 h

T1 sequence (P20083 whole entry): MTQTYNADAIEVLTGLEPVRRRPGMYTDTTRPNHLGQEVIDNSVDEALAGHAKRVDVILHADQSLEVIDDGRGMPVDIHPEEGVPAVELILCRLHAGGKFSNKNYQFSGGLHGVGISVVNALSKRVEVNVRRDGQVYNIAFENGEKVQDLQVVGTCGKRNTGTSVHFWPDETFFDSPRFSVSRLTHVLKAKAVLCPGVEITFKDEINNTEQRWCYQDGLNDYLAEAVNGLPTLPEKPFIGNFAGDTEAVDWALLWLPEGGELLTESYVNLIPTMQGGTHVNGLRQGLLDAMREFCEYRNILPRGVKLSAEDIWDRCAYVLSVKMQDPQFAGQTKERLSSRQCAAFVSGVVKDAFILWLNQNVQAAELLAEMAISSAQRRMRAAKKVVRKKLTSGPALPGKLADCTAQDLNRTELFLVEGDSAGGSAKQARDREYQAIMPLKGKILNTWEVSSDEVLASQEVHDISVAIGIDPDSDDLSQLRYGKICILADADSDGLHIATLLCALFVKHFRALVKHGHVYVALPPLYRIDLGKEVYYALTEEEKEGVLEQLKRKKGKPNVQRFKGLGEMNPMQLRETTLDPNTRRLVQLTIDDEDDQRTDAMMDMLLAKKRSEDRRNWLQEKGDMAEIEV
T1 sequence (P0AFI2 whole entry, further chain): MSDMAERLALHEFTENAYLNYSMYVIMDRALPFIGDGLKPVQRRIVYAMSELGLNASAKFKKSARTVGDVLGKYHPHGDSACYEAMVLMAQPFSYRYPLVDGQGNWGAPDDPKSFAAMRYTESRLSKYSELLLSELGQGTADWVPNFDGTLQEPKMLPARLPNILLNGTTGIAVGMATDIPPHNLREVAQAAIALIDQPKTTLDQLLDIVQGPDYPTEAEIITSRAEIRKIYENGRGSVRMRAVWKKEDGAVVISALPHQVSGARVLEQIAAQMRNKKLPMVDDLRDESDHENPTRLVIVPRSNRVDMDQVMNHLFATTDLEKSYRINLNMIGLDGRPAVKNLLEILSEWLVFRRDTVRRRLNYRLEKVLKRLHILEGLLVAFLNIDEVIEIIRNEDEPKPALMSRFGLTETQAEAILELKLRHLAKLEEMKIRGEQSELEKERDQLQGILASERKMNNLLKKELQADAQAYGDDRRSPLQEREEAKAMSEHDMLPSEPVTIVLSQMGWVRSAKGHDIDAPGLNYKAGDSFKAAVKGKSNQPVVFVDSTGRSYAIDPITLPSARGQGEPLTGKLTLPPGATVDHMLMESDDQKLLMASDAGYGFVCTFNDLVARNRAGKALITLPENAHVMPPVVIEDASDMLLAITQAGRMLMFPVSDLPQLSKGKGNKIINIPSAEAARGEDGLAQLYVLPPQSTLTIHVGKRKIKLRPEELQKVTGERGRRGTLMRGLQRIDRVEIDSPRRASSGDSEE

| Structure (SMILES) | Minimum inhibitory concentration (MIC) B. s [1] | MBC [2] | MBC/MIC [2] | Minimum inhibitory concentration (MRSA (ATCC43300) [3]) | Minimum inhibitory concentration (MIC) P. a [4] | Minimum inhibitory concentration (MIC) E. c [5] | Minimum inhibitory concentration [6] | Minimum inhibitory concentration (MIC) S. e [7] | MBC (MRSA (ATCC43300) [8]) | MBC/MIC (MRSA (ATCC43300) [8]) | MBC (MRSA (NCIM 5021) [9]) | MBC/MIC (MRSA (NCIM 5021) [9]) | Minimum inhibitory concentration (MRSA (NCIM 5021) [10]) | Minimum inhibitory concentration (MIC) K. p [11] | IC50 against E. coli ParE enzyme (E. coli ParE enzyme) | SI (CC50/IC50) (Vero cells [12]) | Minimum inhibitory concentration (MIC) S. a [13] | CC50 (Vero cells [14]) | Minimum inhibitory concentration (MIC) M. t [15] | other results |
| --- | --- | --- | --- | --- | --- | --- | --- | --- | --- | --- | --- | --- | --- | --- | --- | --- | --- | --- | --- | --- |
| O=C(COc1ccccc1NC(=O)CCl)Nc1ccc([N+](=O)[O-])cc1 [Compound 1] | 3.62 | 1.42 ± 0.02 µg/mL (≈ 3.9 µM) | 2 | 0.99 ± 0.24 µg/mL (≈ 2.72 µM) | 0.69 | 0.75 | 0.72 µg/mL and 0.72 ± 0.07 µg/mL | 2.98 | 0.99 ± 0.24 µg/mL (≈ 2.72 µM) | 1 | 0.84 ± 0.13 µg/mL (≈ 2.31 µM) | 1 | 0.84 ± 0.13 µg/mL (≈ 2.31 µM) | 0.78 | 0.99 ± 0.01 µg/mL (≈ 2.72 µM) | 216.0608 | 2.56 | 213.9002 µg/mL (≈ 588 µM) | 3.85 | – |
| O=C(CCl)Nc1ccccc1OCC(=O)Nc1ccc([N+](=O)[O-])cc1[N+](=O)[O-] [Compound 7] | 6.56 | 0.83 ± 0.1 µg/mL (≈ 2.03 µM) | 1 | 0.85 ± 0.09 µg/mL (≈ 2.08 µM) | 0.67 | 1.52 | 0.83 ± 0.05 µg/mL (≈ 2.03 µM) | 8.62 | 0.85 ± 0.09 µg/mL (≈ 2.08 µM) | 1 | 0.95 ± 0.06 µg/mL (≈ 2.32 µM) | 1 | 0.95 ± 0.06 µg/mL (≈ 2.32 µM) | 1.25 | 0.95 ± 0.06 µg/mL (≈ 2.32 µM) | 236.5585 | 5.78 | 224.7306 µg/mL (≈ 550 µM) | 1.02 | – |
| O=C(COc1ccccc1NC(=O)CCl)NNc1ccc([N+](=O)[O-])cc1[N+](=O)[O-] [Compound 17] | 4.89 | 7.2 ± 0.7 µg/mL (≈ 17 µM) | 2 | 3.23 ± 0.21 µg/mL (≈ 7.62 µM) | 0.98 | 1.25 | 3.41 ± 0.25 µg/mL (≈ 8.05 µM) | 3.56 | – | – | 7.46 ± 0.05 µg/mL (≈ 17.6 µM) | 2 | 3.71 ± 0.15 µg/mL (≈ 8.75 µM) | 1.26 | 0.86 ± 0.12 µg/mL (≈ 2.03 µM) | 175.3553 | 2.38 | 150.8056 µg/mL (≈ 356 µM) | 0.98 | – |
| O=C(COc1ccccc1NC(=O)CCl)NNC(=O)c1ccc([N+](=O)[O-])cc1 [Compound 14] | 5.70 | – | 1 | 0.94 ± 0.14 µg/mL (≈ 2.31 µM) | 1.98 | 0.80 | 4.14 ± 0.07 µg/mL (≈ 10.2 µM) | 5.61 | 0.94 ± 0.14 µg/mL (≈ 2.31 µM) | 1 | – | – | 4.35 ± 0.09 µg/mL (≈ 10.7 µM) | 0.98 | 0.36 ± 0.03 µg/mL (≈ 0.885 µM) | 179.8902 | 8.56 | 64.7605 µg/mL (≈ 159 µM) | 2.56 | – |
| CNC(C)C1CCC(N)C(OC2C(N)CC(N)C(OC3OCC(C)(O)C(NC)C3O)C2O)O1 (stereo not shown) [Gentamicin] | – | – | – | – | – | – | – | – | – | – | – | – | – | – | – | – | – | – | – | FIC A (E. coli [16]; FIC of compound 5 in combination): 0.1453; FIC A (E. coli [16]; FIC of compound 21 in combination with the row's drug): 0.1907; FIC B (E. coli [16]; FIC of the drug in combination with compound 5): 0.1254; FIC B (E. coli [16]; FIC of the drug in combination with compound 21): 0.1510; Inference (E. coli [16]; drug combined with compound 5): Synergistic (synergistic when the ΣFICs is ≤ 0.5); Inference (E. coli [16]; drug combined with compound 21): Synergistic (synergistic when the ΣFICs is ≤ 0.5); ΣFIC A + FIC B (E. coli [16]; drug combined with compound 21): 0.3417; PAE = T - C (E. coli [17]; 1 × mic): 0 h; Time for 1 log10 (E. coli [17]; 1 × mic): 2 h; PAE = T - C (E. coli [17]; 10 × mic): 1 h; Time for 1 log10 (E. coli [17]; 10 × mic): 3 h |
| O=C(CSc1nc2ccccc2s1)Nc1ccc([N+](=O)[O-])cc1 [Compound 24] | 1.97 | 0.78 ± 0.08 µg/mL (≈ 2.26 µM) | 1 | 0.73 ± 0.12 µg/mL (≈ 2.11 µM) | 15.0 | 2.17 | 0.78 µg/mL and 0.78 ± 0.08 µg/mL | 1.98 | 0.73 ± 0.12 µg/mL (≈ 2.11 µM) | 1 | 0.81 ± 0.10 µg/mL (≈ 2.35 µM) | 1 | 0.81 ± 0.10 µg/mL (≈ 2.35 µM) | 2.24 | – | 351.6852 | 0.78 | 168.8089 µg/mL (≈ 489 µM) | 2.52 | – |
| O=C(CNc1nc2ccccc2s1)Nc1ccccc1 [Compound 26] | 3.65 | 0.72 ± 0.05 µg/mL (≈ 2.54 µM) | 1 | 2.78 ± 0.20 µg/mL (≈ 9.81 µM) | 1.22 | 1.05 | 2.64 ± 0.31 µg/mL (≈ 9.32 µM) | 8.14 | 4.32 ± 0.10 µg/mL (≈ 15.2 µM) | 4 | 0.86 ± 0.13 µg/mL (≈ 3.04 µM) | 1 | 2.77 ± 0.21 µg/mL (≈ 9.78 µM) | 1.31 | 1.54 µg/mL (≈ 5.43 µM) | – | 0.98 | – | 10.1 | – |
| O=C(CSc1nc2ccccc2s1)Nc1ccccc1 [Compound 23] | 1.27 | 0.95 ± 0.05 µg/mL (≈ 3.16 µM) | 1 | 0.75 ± 0.11 µg/mL (≈ 2.5 µM) | 1.88 | 2.11 | 0.95 ± 0.05 µg/mL (≈ 3.16 µM) | 1.51 | 0.75 ± 0.11 µg/mL (≈ 2.5 µM) | 1 | 0.94 ± 0.04 µg/mL (≈ 3.13 µM) | 1 | 0.94 ± 0.04 µg/mL (≈ 3.13 µM) | 1.62 | 1.76 µg/mL (≈ 5.86 µM) | – | 1.84 | – | 1.74 | – |
| O=C(COc1ccc2ccccc2c1)Nc1ccc(Cl)cc1 [Compound 29] | 4.69 | 0.81 ± 0.14 µg/mL (≈ 2.6 µM) | 1 | 0.91 ± 0.11 µg/mL (≈ 2.92 µM) | 5.48 | 0.77 | 0.81 ± 0.14 µg/mL (≈ 2.6 µM) | 4.70 | 0.91 ± 0.11 µg/mL (≈ 2.92 µM) | 1 | 0.75 ± 0.19 µg/mL (≈ 2.41 µM) | 1 | 0.75 ± 0.19 µg/mL (≈ 2.41 µM) | 0.88 | 2.77 µg/mL (≈ 8.88 µM) | – | 0.90 | – | 0.77 | – |
